System: LPS induced TNF release, THP1 cells
Test: Lipopolysaccharide-Activated THP1 Cell TNF Production Assay (LPS induced TNF release)
Type: cell-based
Conditions: Homo sapiens, THP-1, bacterial LPS, 3 h at 37° C., secreted TNF-α read by ECL
Description: Lipopolysaccharide-Activated THP1 Cell TNF Production Assay
THP1 cells are resuspended in fresh THP1 media (RPMI 1640, 10% heat-inactivated FBS, 1×PGS, 1×NEAA, plus 30 μM βME) at a concentration of 1E6/mL. One hundred microliters of cells per well are plated in a polystyrene 96-well tissue culture. One microgram per mL of bacterial LPS is prepared in THP1 media and is transferred to the wells. Test compounds are dissolved in 100% DMSO and are serially diluted 3 fold in a polypropylene 96-well microtiter plate (drug plate). HI control and LO control wells contain only DMSO. One microliter of test compound from the drug plate followed by 10 μL of LPS are transferred to the cell plate. The treated cells are induced to synthesize and secrete TNF-α at 37° C. for 3 h. Forty microliters of conditioned media are transferred to a 96-well polypropylene plate containing 110 μL of ECL buffer (50 mM Tris-HCl pH 8.0, 100 mM NaCl, 0.05% Tween 20, 0.05% NaN3 and 1% FBS) supplemented with 0.44 nM MAB610 monoclonal Ab (R&D Systems), 0.34 nM ruthenylated AF210NA polyclonal Ab (R&D Systems) and 44 μg/mL sheep anti-mouse M280 Dynabeads (Dynal). After a 2 h incubation at room temperature with shaking, the reaction is read on the ECL M8 Instrument (IGEN Inc.). A low voltage is applied to the ruthenylated TNF-α: immune complexes, which in the presence of TPA (the active component in Origlo), results in a cyclical redox reaction generating light at […]. The amount of secreted TNF-α in the presence of compound compared with that in the presence of DMSO vehicle alone (HI control) is calculated using the formula: % control (POC)=(cpd−average LO)/(average HI−average LO)*100. Data (consisting of POC and inhibitor concentration in AM) is fitted to a 4-parameter equation (y=A+((B−A)/(1+((x/C)^D))), where A is the minimum y (POC) value, B is the maximum y (POC), C is the x (cpd concentration) at the point of inflection and D is the slope factor) using a Levenburg-Marquardt non-linear regression algorithm.

Row | Structure (SMILES) | IC50
1 | CC(C)N1CCC(n2[nH]c(=O)c(-c3ccc(Cl)cc3)c2-c2ccncc2)CC1 [Example 12, 4-(4-Chlorophenyl)-1-(1-isopropyl-piperidin-4-yl)-5-pyridin-4-yl-1,2-dihydro-pyrazol-3-one] | ≤ 20 µM
2 | O=c1[nH][nH]c(-c2ccncc2)c1-c1ccc(Cl)c(Cl)c1 [Example 15, 4-(3,4-Dichloro-phenyl)-5-pyridin-4-yl-1,2-dihydro-pyrazol-3-one] | ≤ 20 µM
3 | CC(C)n1[nH]c(=O)c(-c2ccc(Cl)c(Cl)c2)c1-c1ccncc1 [Example 16, 4-(3,4-Dichloro-phenyl)-1-isopropyl-5-pyridin-4-yl-1,2-dihydro-pyrazol-3-one] | ≤ 20 µM
4 | CC(C)n1c(-c2ccncc2)c(-c2ccc(Cl)c(Cl)c2)c(=O)n1C [Example 17, 4-(3,4-Dichloro-phenyl)-1-isopropyl-2-methyl-5-pyridin-4-yl-1,2-dihydro-pyrazol-3-one] | ≤ 20 µM
5 | Cn1c(=O)c(-c2ccc(Cl)c(Cl)c2)c(-c2ccncc2)n1CC1CCCCC1 [Example 19, 1-Cyclohexylmethyl-4-(3,4-dichloro-phenyl)-2-methyl-5-pyridin-4-yl-1,2-dihydro-pyrazol-3-one] | ≤ 20 µM
6 | NC1CCC(n2[nH]c(=O)c(-c3ccc(Cl)cc3)c2-c2ccncc2)CC1 (stereo not shown) [Example 20, 1-(4-Aminocyclohexyl)-4-(4-chlorophenyl)-5-pyridin-4-yl-1,2-dihydropyrazol-3-one] | ≤ 20 µM

Results, then the compound that gave them:

Row | IC50 | Structure (SMILES)
7 | ≤ 20 µM | O=c1[nH]n(C2CCNCC2)c(-c2ccncc2)c1-c1ccc(Cl)cc1 [Example 5, 4-(4-Chloro-phenyl)-1-piperidin-4-yl-5-pyridin-4-yl-1,2-dihydro-pyrazol-3-one]
8 | ≤ 20 µM | O=c1[nH]n(C2CCCNC2)c(-c2ccncc2)c1-c1ccc(Cl)cc1 (stereo not shown) [Example 6, 4-(4-Chloro-phenyl)-1-piperidin-3-yl-5-pyridin-4-yl-1,2-dihydro-pyrazol-3-one]
9 | ≤ 20 µM | CN1CCC(n2[nH]c(=O)c(-c3ccc(Cl)cc3)c2-c2ccncc2)CC1 [Example 10, 4-(4-Chlorophenyl)-1-(1-methyl-piperidin-4-yl)-5-pyridin-4-yl-1,2-dihydro-pyrazol-3-one]
10 | ≤ 20 µM | CN1CCCC(n2[nH]c(=O)c(-c3ccc(Cl)cc3)c2-c2ccncc2)C1 (stereo not shown) [Example 11, 4-(4-Chlorophenyl)-1-(1-methyl-piperidin-3-yl)-5-pyridin-4-yl-1,2-dihydro-pyrazol-3-one]

Reference: patent publication US6967254B2, “Substituted heterocyclic compounds and methods of use” (Amgen Inc., priority 2002, dated 2005)
